Tested on: normal human epidermal keratinocytes (NHEK)
Test: Affymetrix gene array analysis, autoantigen gene expression
Assay type: cell-based
Details: 100 μM
Experimental: The gene array experiment was performed at the Core Facility of Genomics of the Medical College of Georgia, according to the instructions of the manufacturer (Affymetrix, Santa Clara, Calif.). Briefly, NHEK and OSC2 cells treated with 100 μM EGCG for different time period were extracted for total RNA, the RNA was processed for probes and hybridized with a cDNA microarray (HuG133A, Affymetrix) which represents 22,283 human series. DNA chips were read with a Hewlett-Packard GeneArray Scanner at a resolution of […] and were analyzed with the GeneSpring software (Silicon Genetics, Redwood City, Calif.). Details of this analysis will be published elsewhere (Hsu et al., manuscript in preparation).
Gene assays provide a valuable tool for studying the broad response of cells to agents, and we have used this approach to compare the differential effects of GTPP on gene expression in NHEK and human oral squamous carcinoma cells (Hsu, et al, manuscript in preparation). […] See also Hsu, S. et al. (2005) JPET 315:805-811, which is incorporated by reference in its entirety.

Question: For `O=C(O[C@@H]1Cc2c(O)cc(O)cc2O[C@@H]1c1cc(O)c(O)c(O)c1)c1cc(O)c(O)c(O)c1` [EGCG, (−)-epigallocatechin-3-gallate], which “60 kDa, SS-A/Ro (210438_x_at) expression, normalized” value (2 h) is on record?
Answer: 0.92

Question: What about the “60 kDa, SS-A/Ro (212852_s_at) expression, normalized” value (2 h) of the same compound?
Answer: 0.98

Question: What about the “Ku autoantigen, 80 kDa (208642_s_at) expression, normalized” value (2 h) of the same compound?
Answer: 1.14

Question: And the “Ku autoantigen, 80 kDa (208643_s_at) expression, normalized” value (2 h)?
Answer: 1.40

Question: And the “Nuclear antigen SP100 (202863_at) expression, normalized” value (2 h)?
Answer: 1.04

Question: What about the “Nuclear antigen SP100 (202864_s_at) expression, normalized” value (2 h) of the same compound?
Answer: 1.21

Question: What about the “Nuclear antigen SP10075 kDa (213226_at) expression, normalized” value (2 h) of the same compound?
Answer: 1.09

Question: And the “RNA polymerase 1 (202692_s-at) expression, normalized” value (2 h)?
Answer: 0.48

Question: And the “SS-B/La (201138_s_at) expression, normalized” value (2 h)?
Answer: 0.88

Question: And the “SS-B/La (201139_s_at) expression, normalized” value (2 h)?
Answer: 0.74

Question: What about the “centromere protein C1 (20473_at) expression, normalized” value (2 h) of the same compound?
Answer: 0.46

Question: And the “coilin (203653_s_at) expression, normalized” value (2 h)?
Answer: 0.54

Question: What about the “coilin (203654_s_at) expression, normalized” value (2 h) of the same compound?
Answer: 0.78

Question: And the “fodrin-α (208611_s_at) expression, normalized” value (2 h)?
Answer: 0.75

Question: And the “fodrin-α (215235_s_at) expression, normalized” value (2 h)?
Answer: 0.97

Question: What about the “golgin-67 (208797_s_at) expression, normalized” value (2 h) of the same compound?
Answer: 0.71

Question: And the “golgin-67 (208798_x_at) expression, normalized” value (2 h)?
Answer: 0.46

Question: And the “golgin-67 (210425_x_at) expression, normalized” value (2 h)?
Answer: 0.47

Question: What about the “golgin-67 (213650_at) expression, normalized” value (2 h) of the same compound?
Answer: 0.61

Question: What about the “scleroderma autoantigen 1, 75 kDa (213226_at) expression, normalized” value (2 h) of the same compound?
Answer: 1.09

Question: And the “spectrin-β non-erythrocyctic 1 (212071_s_at) expression, normalized” value (2 h)?
Answer: 0.92

Question: What about the “thyroid autoantigen 70 kDa (Ku antigen) (200792_at) expression, normalized” value (2 h) of the same compound?
Answer: 1.19

Question: And the “ADPRT [poly(ADP)-ribose polymerase] expression” value (2 h, vs time zero)?
Answer: 1.201 fold

Question: And the ANAP12 expression (2 h, vs time zero)?
Answer: 0.991 fold

Question: What about the ANXA11 expression (2 h, vs time zero) of the same compound?
Answer: 1.26 fold

Question: And the CALR expression (2 h, vs time zero)?
Answer: 0.943 fold

Question: And the CBARA1 expression (2 h, vs time zero)?
Answer: 0.773 fold

Question: What about the CENPA expression (2 h, vs time zero) of the same compound?
Answer: 1.095 fold

Question: What about the CENPB expression (2 h, vs time zero) of the same compound?
Answer: 0.773 fold

Question: What about the CENPC1 expression (2 h, vs time zero) of the same compound?
Answer: 0.457 fold

Question: What about the CHD4 expression (2 h, vs time zero) of the same compound?
Answer: 0.811 fold

Question: What about the COL17A1 expression (2 h, vs time zero) of the same compound?
Answer: 1.102 fold

Question: And the CTDSP1 expression (2 h, vs time zero)?
Answer: 1.00 fold

Question: And the CTDSP2 expression (2 h, vs time zero)?
Answer: 1.21 fold

Question: And the CTDSPL expression (2 h, vs time zero)?
Answer: 1.12 fold

Question: What about the DLAT expression (2 h, vs time zero) of the same compound?
Answer: 0.924 fold

Question: What about the EPPK1 expression (2 h, vs time zero) of the same compound?
Answer: 0.856 fold

Question: And the FBL expression (2 h, vs time zero)?
Answer: 1.12 fold

Question: What about the FLJ31657 expression (2 h, vs time zero) of the same compound?
Answer: 0.608 fold

Question: And the “FLNB (Filamin B, β) expression” value (2 h, vs time zero)?
Answer: 1.168 fold

Question: And the “FLNB (Filamin B, γ) expression” value (2 h, vs time zero)?
Answer: 0.92 fold

Question: And the “G22P1 (Thyroid autoantigen, 70 kDa, Ku antigen) expression” value (2 h, vs time zero)?
Answer: 1.185 fold

Question: What about the GMEB2 expression (2 h, vs time zero) of the same compound?
Answer: 0.739 fold

Question: What about the GOLGA1 expression (2 h, vs time zero) of the same compound?
Answer: 0.182 fold

Question: And the GOLGA2 expression (2 h, vs time zero)?
Answer: 0.642 fold

Question: And the GOLGA3 expression (2 h, vs time zero)?
Answer: 0.58 fold

Question: What about the GOLGA4 expression (2 h, vs time zero) of the same compound?
Answer: 0.748 fold

Question: What about the GOLGA5 expression (2 h, vs time zero) of the same compound?
Answer: 0.928 fold

Question: And the GOLGB1 expression (2 h, vs time zero)?
Answer: 0.704 fold

Question: What about the HARS expression (2 h, vs time zero) of the same compound?
Answer: 1.11 fold

Question: What about the HARSL expression (2 h, vs time zero) of the same compound?
Answer: 1.05 fold

Question: And the HSA6591 expression (2 h, vs time zero)?
Answer: 0.835 fold

Question: What about the HUMAUANTIG expression (2 h, vs time zero) of the same compound?
Answer: 0.779 fold

Question: And the IMP-2 expression (2 h, vs time zero)?
Answer: 1.366 fold

Question: What about the LAD1 expression (2 h, vs time zero) of the same compound?
Answer: 0.681 fold

Question: What about the “LMO4 expression (repeat 1)” value (2 h, vs time zero) of the same compound?
Answer: 0.867 fold

Question: What about the “LMO4 expression (repeat 2)” value (2 h, vs time zero) of the same compound?
Answer: 1.199 fold

Question: What about the “MGC5560 expression (repeat 1)” value (2 h, vs time zero) of the same compound?
Answer: 1.161 fold

Question: And the “MGC5560 expression (repeat 2)” value (2 h, vs time zero)?
Answer: 0.932 fold

Question: And the “NS (Nucleostemin) expression” value (2 h, vs time zero)?
Answer: 0.95 fold

Question: What about the PDHB expression (2 h, vs time zero) of the same compound?
Answer: 1.14 fold

Question: And the PDX1 expression (2 h, vs time zero)?
Answer: 0.765 fold

Question: What about the “PMSCL1, 75 kDa expression” value (2 h, vs time zero) of the same compound?
Answer: 1.09 fold

Question: And the PMSCL2 expression (2 h, vs time zero)?
Answer: 0.938 fold

Question: What about the POLR1B expression (2 h, vs time zero) of the same compound?
Answer: 1.03 fold

Question: What about the POLR1D expression (2 h, vs time zero) of the same compound?
Answer: 0.96 fold

Question: What about the “POLR2A expression (repeat 1)” value (2 h, vs time zero) of the same compound?
Answer: 1.29 fold

Question: And the “POLR2A expression (repeat 2)” value (2 h, vs time zero)?
Answer: 0.45 fold

Question: What about the POLR2B expression (2 h, vs time zero) of the same compound?
Answer: 1.02 fold

Question: And the POLR2C expression (2 h, vs time zero)?
Answer: 1.60 fold

Question: What about the POLR2D expression (2 h, vs time zero) of the same compound?
Answer: 0.95 fold

Question: What about the POLR2E expression (2 h, vs time zero) of the same compound?
Answer: 0.70 fold

Question: And the POLR2F expression (2 h, vs time zero)?
Answer: 1.00 fold

Question: And the POLR2G expression (2 h, vs time zero)?
Answer: 1.02 fold

Question: And the POLR2H expression (2 h, vs time zero)?
Answer: 0.85 fold

Question: What about the POLR3C expression (2 h, vs time zero) of the same compound?
Answer: 0.73 fold

Question: What about the POLR3G expression (2 h, vs time zero) of the same compound?
Answer: 1.00 fold

Question: What about the PSME3 expression (2 h, vs time zero) of the same compound?
Answer: 1.151 fold

Question: What about the RALY expression (2 h, vs time zero) of the same compound?
Answer: 0.752 fold

Question: What about the SART1 expression (2 h, vs time zero) of the same compound?
Answer: 1.188 fold

Question: What about the SLC25A16 expression (2 h, vs time zero) of the same compound?
Answer: 0.886 fold

Question: And the SNRP70 expression (2 h, vs time zero)?
Answer: 1.01 fold

Question: And the SNRPA expression (2 h, vs time zero)?
Answer: 0.93 fold

Question: And the SNRPB2 expression (2 h, vs time zero)?
Answer: 0.67 fold

Question: And the “SNRPB expression (repeat 1)” value (2 h, vs time zero)?
Answer: 0.95 fold

Question: What about the “SNRPB expression (repeat 2)” value (2 h, vs time zero) of the same compound?
Answer: 0.79 fold

Question: What about the SNRPC expression (2 h, vs time zero) of the same compound?
Answer: 1.08 fold

Question: What about the “SNRPD1 expression (repeat 1)” value (2 h, vs time zero) of the same compound?
Answer: 1.285 fold

Question: And the “SNRPD1 expression (repeat 2)” value (2 h, vs time zero)?
Answer: 0.676 fold

Question: And the SOX13 expression (2 h, vs time zero)?
Answer: 0.771 fold

Question: What about the “SP100 expression (repeat 1)” value (2 h, vs time zero) of the same compound?
Answer: 1.037 fold

Question: What about the “SP100 expression (repeat 2)” value (2 h, vs time zero) of the same compound?
Answer: 1.205 fold

Question: What about the “SP110 expression (repeat 1)” value (2 h, vs time zero) of the same compound?
Answer: 1.702 fold

Question: And the “SP110 expression (repeat 2)” value (2 h, vs time zero)?
Answer: 1.804 fold

Question: What about the “SP110 expression (repeat 3)” value (2 h, vs time zero) of the same compound?
Answer: 1.026 fold

Question: What about the “SPTAN1 (α-fodrin) expression (repeat 1)” value (2 h, vs time zero) of the same compound?
Answer: 0.75 fold

Question: And the “SPTAN1 (α-fodrin) expression (repeat 2)” value (2 h, vs time zero)?
Answer: 0.97 fold

Question: What about the SPTBN expression (2 h, vs time zero) of the same compound?
Answer: 0.92 fold

Question: And the “SSA2 (autoantigen SS-A/Ro) expression (repeat 2)” value (2 h, vs time zero)?
Answer: 0.919 fold

Question: What about the “SSA2 expression (repeat 1)” value (2 h, vs time zero) of the same compound?
Answer: 0.335 fold

Question: And the “SSA2 expression (repeat 3)” value (2 h, vs time zero)?
Answer: 0.957 fold

Question: And the “SSA2 expression (repeat 4)” value (2 h, vs time zero)?
Answer: 0.98 fold

Question: What about the “SSB (autoantigen La) expression (repeat 1)” value (2 h, vs time zero) of the same compound?
Answer: 0.878 fold

Question: And the “SSB (autoantigen La) expression (repeat 2)” value (2 h, vs time zero)?
Answer: 0.739 fold

Question: And the SSNA1 expression (2 h, vs time zero)?
Answer: 1.17 fold

Question: What about the SSSCA1 expression (2 h, vs time zero) of the same compound?
Answer: 1.694 fold

Question: And the STRN3 expression (2 h, vs time zero)?
Answer: 0.623 fold

Question: And the “TOP1 expression (repeat 1)” value (2 h, vs time zero)?
Answer: 1.09 fold

Question: What about the “TOP1 expression (repeat 2)” value (2 h, vs time zero) of the same compound?
Answer: 0.62 fold

Question: And the UBTF expression (2 h, vs time zero)?
Answer: 0.484 fold

Question: What about the “XRCC5 (Ku autoantigen, 80 kDa) expression (repeat 1)” value (2 h, vs time zero) of the same compound?
Answer: 1.403 fold

Question: And the “XRCC5 (Ku autoantigen, 80 kDa) expression (repeat 2)” value (2 h, vs time zero)?
Answer: 1.141 fold

Question: And the dJ963E22.1 expression (2 h, vs time zero)?
Answer: 0.864 fold

Question: And the α-NAC expression (2 h, vs time zero)?
Answer: 0.521 fold

Question: And the “60 kDa, SS-A/Ro (210438_x_at) expression, normalized” value (6 h)?
Answer: 0.69
